Data: ChEMBL document CHEMBL1201862, “PubChem BioAssay data set” (2004)
Calls of active or inactive are those of the source.

What was measured:
Bcl-2-related protein A1 = target: T1, Bcl-2-related protein A1 (Mus musculus, UniProt Q07440); assay type: functional;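 note: confirmatory dose–response counterscreen on Bfl-1, used to check hits from a UBC13 polyubiquitin inhibitor campaign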
T1 sequence (Q07440 whole entry): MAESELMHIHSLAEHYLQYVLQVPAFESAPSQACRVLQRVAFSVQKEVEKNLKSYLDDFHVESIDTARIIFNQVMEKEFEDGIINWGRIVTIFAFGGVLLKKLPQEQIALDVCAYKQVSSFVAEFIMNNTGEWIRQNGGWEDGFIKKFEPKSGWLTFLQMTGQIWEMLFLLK

[1] = target: T2, Ubiquitin-conjugating enzyme E2 N (Homo sapiens, UniProt P61088); assay type: functional
T2 sequence (P61088 whole entry): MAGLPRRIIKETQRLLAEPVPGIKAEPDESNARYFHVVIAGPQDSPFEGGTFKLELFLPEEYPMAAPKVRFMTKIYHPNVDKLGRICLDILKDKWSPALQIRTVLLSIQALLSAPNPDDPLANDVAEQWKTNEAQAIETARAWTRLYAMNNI

[2] = microbe, parasite or virus in culture; assay type: functional; conditions: Mycobacterium tuberculosis
[3] = target: T2, Ubiquitin-conjugating enzyme E2 N; assay type: functional; remark: listed apart in the source
[4] = Luminescence Cell-Based Dose Retest to Confirm Inhibitors of Cancer Stem Cells. [Related pubchem assays (depositor defined):AID2717, AID2721]; assay type: functional; conditions: Homo sapiens
INS1 = assay: INS-1E survival protection against cytokine death – cell-based, luminescence, retest, dose response (AID 449756); assay type: functional; conditions: Rattus norvegicus;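 note: cell death triggered by IL-1 beta plus TNF-alpha plus IFN-gamma mixture; protective hits raise ATP signal compared with cytokine alone wells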
Mu-type opioid receptor = Mu-type opioid receptor (Homo sapiens, UniProt P35372); assay: SAR Analysis of Agonists of the MOR Receptor using an Image-Based Assay - Set 3. [Related pubchem assays (depositor defined):AID1777, AID1785, AID1786, AID1966, AID2133, AID2136, AID2284, AID2285, AID2352]; assay type: functional
[5] = target: T3, Kappa-type opioid receptor (Homo sapiens, UniProt P41145); assay: SAR analysis of small molecule agonists of the kappa opioid receptor via a luminescent beta-arrestin assay - Set 3. [Related pubchem assays (depositor defined):AID1777, AID1785, AID1786, AID1966, AID2133, AID2136, AID2284, AID2500]; assay type: functional
[6] = target: T3, Kappa-type opioid receptor; assay: kappa opioid receptor activation by imaging – image-based, set 3, SAR follow-up (AID 488833); assay type: functional
[7] = target: Delta-type opioid receptor (Homo sapiens, UniProt P41143); assay: SAR Analysis of Agonists of the DOR Receptor using an Image-Based Assay - Set 3. [Related pubchem assays (depositor defined):AID1777, AID1786]; assay type: functional
BJ [8] = assay: cells; assay type: functional, cell-based; conditions: Homo sapiens
CAAX prenyl protease 2 = CAAX prenyl protease 2 (Saccharomyces cerevisiae S288c, UniProt Q03530); assay type: biochemical
[9] = DRD fibroblast viability loss – cell-based, non-viral oncogenic, luminescence, dose response (AID 1934); assay type: functional; conditions: Homo sapiens
BJ [10] = assay: BJ-TERT fibroblast viability loss – cell-based, RAS-independent, luminescence, dose response (AID 1933); assay type: functional; conditions: Homo sapiens
[11] = toxicity toward cultured mammalian cells – cell-based, plate reader, cherry-pick samples, cytotoxicity control, dose response (AID 504397); assay type: functional
BJ [12] = assay: BJ-TERT-LT-ST fibroblast viability loss – cell-based, RAS-independent, luminescence, dose response (AID 1935); assay type: functional; conditions: Homo sapiens;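 note: BJ fibroblasts immortalized with TERT plus LT and ST oncogenes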

T3 sequence (P41145 whole entry): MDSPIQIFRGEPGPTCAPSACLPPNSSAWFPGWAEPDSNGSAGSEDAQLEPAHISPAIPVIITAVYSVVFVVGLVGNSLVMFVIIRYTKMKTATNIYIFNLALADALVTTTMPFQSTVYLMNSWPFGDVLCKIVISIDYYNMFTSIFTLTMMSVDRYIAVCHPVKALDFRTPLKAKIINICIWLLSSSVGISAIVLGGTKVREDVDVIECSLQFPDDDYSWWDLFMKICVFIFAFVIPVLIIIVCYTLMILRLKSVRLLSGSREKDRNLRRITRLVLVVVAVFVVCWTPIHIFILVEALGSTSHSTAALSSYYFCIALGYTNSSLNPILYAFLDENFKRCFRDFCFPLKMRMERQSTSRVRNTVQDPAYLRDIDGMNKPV
Sequence of Delta-type opioid receptor (P41143 whole entry): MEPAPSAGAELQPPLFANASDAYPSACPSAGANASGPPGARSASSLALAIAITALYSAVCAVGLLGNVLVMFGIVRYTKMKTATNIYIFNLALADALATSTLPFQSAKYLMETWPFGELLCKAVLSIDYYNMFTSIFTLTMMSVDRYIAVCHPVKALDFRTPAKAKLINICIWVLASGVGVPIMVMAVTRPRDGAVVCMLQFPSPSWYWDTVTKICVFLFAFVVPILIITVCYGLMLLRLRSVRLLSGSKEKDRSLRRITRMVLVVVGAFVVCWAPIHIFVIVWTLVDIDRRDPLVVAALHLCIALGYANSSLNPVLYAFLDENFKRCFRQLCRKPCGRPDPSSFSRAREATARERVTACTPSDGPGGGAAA
Sequence of Mu-type opioid receptor (P35372 whole entry): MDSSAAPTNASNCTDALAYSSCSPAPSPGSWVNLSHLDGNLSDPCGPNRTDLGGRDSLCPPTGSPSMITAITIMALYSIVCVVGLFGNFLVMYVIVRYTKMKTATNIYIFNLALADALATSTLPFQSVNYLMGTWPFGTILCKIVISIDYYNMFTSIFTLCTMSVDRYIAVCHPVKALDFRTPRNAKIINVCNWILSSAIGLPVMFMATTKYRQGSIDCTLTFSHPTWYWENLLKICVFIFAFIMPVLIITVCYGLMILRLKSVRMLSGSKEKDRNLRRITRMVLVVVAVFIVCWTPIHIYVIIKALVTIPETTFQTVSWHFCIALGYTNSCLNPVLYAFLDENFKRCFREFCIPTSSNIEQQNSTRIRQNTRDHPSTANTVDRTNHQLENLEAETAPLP
Sequence of CAAX prenyl protease 2 (Q03530 whole entry): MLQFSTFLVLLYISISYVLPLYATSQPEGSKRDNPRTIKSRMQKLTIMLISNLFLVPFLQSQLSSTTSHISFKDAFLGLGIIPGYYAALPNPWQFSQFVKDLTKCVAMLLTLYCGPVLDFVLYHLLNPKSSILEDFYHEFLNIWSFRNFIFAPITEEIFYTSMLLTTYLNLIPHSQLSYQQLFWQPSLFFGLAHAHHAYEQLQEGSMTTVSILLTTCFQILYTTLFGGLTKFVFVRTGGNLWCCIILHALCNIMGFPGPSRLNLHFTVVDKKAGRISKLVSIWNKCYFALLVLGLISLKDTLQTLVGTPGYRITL

COc1ccc2cc1Oc1ccc(cc1)C[C@H]1c3c(cc(OC)c4c3Oc3c(ccc5c3[C@H](C2)N(C)CC5)O4)CCN1C
IC50 (Bcl-2-related protein A1): > 20 µM (inactive) | IC50 [1]: 16 µM (active) | CC50 [2]: 6.25 µM (active) | IC50 [3]: 12.2 µM (active) | AC50 [4]: 3.56 µM (active) | AC50 (INS1): 8.02 µM (active)

FC(F)(F)c1cc(CSc2nnc(-c3ccccn3)n2Cc2ccco2)ccc1Cl
EC50 (Mu-type opioid receptor): > 32 µM (inactive) | EC50 [5]: 0.504 µM (active) | EC50 [6]: 0.456 µM (active) | EC50 [7]: > 64 µM (inactive)

Cc1cccc(OCCCN2C(=O)C(=O)c3cc(C)ccc32)c1
EC50 (BJ [8]): > 150 µM (not active) | AC50 (CAAX prenyl protease 2): 2.77 µM (active) | EC50 [9]: 25.9 µM (active) | EC50 (BJ [10]): 5.08 µM (active) | AC50 [11]: 42.4 µM (active) | EC50 (BJ [12]): 11.1 µM (inconclusive)
